Data on 69 molecules can be found in patent US7459450B2, “Neuropeptide receptor modulators” (Schering Corporation, priority 2004, dated 2008).

By Ki is commonly meant the equilibrium dissociation constant of an inhibitor or competing ligand from its target. Low readings indicate a stronger hold on the target, high ones a looser hold on the target.

The assay addresses T1, Human NPY Y1 receptors (Homo sapiens, UniProt P25929).
T1 construct: expressed in transfected cells; host or cells: CHO cells (membrane protein)
T1 sequence (P25929 1-384): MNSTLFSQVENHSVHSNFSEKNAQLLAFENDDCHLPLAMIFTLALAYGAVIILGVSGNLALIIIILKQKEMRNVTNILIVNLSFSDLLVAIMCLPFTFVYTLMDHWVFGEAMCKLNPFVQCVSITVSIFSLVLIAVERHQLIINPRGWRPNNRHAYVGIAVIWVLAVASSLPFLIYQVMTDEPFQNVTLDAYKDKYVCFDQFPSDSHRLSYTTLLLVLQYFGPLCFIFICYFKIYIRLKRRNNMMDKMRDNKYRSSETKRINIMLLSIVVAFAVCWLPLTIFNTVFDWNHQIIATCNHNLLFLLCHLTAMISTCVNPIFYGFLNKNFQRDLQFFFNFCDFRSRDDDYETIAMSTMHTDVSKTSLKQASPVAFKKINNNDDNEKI
As to the kind of experiment: NPY Receptor Binding Assay. The following applies: Procedure E compounds, rated A/B/C. Here is the method: NPY Receptor Binding Assay
Human NPY Y1 receptors were expressed in CHO cells. Binding assays were performed in 50 mM HEPES, pH 7.2, 2.5 mM CaCl2, 1 mM MgCl2 and 0.1% BSA containing 5-10 μg of membrane protein and 0.1 nM […] in a total volume of 200 μl. Non-specific binding was determined in the presence of 1 μM NPY. The reaction mixtures were incubated for 90 minutes at room temperature then filtered through Millipore MAFC glass fiber filter plates which had been pre-soaked in 0.5% polyethleneimine. The filters were washed with phosphate-buffered saline, and radioactivity was measured in a Packard TopCount scintillation counter.
Regarding `Cc1ccc2nc(NCCc3ccc(/N=C4\SCCN4C)cc3)sc2c1` [Example 86], the inhibitory constant (Ki) is above 10 µM.
As for `Cc1ccc2nc(NCCc3ccc(/N=C4/N[C@@H](Cc5ccccc5)CS4)cc3)sc2c1` [Example 87], the figure is 1 to 10 µM.
As for `Cc1ccc2nc(NCCc3ccc(/N=C4/N[C@H](CC(C)C)CS4)cc3)sc2c1` [Example 88], the figure is below 1 µM; as for `Cc1ccc2nc(NCCc3ccc(/N=C4\SC[C@@H]5CCCN45)cc3)sc2c1` [Example 89], above 10 µM.
With `Cc1ccc2nc(NCCc3ccc(/N=C4/NCC(c5ccccc5)S4)cc3)sc2c1` (stereo not drawn) [Example 90] the figure was above 10 µM.
In the case of `CCCC1CS/C(=N\c2ccc(CCNc3nc4ccc(C)cc4s3)cc2)N1` (stereo not drawn) [Example 91], the Ki was below 1 µM.
As for `CCCCC1CS/C(=N\c2ccc(CCNc3nc4ccc(C)cc4s3)cc2)N1` (stereo not drawn) [Example 92], the figure is 1 to 10 µM; as for `Cc1ccc2nc(NCCc3ccc(/N=C4/N[C@@H](C(C)C)CS4)cc3)sc2c1` [Example 93], 1 to 10 µM; as for `Cc1ccc2nc(NCCc3ccc(/N=C4/N[C@H](C)CS4)cc3)sc2c1` [Example 95], below 1 µM.
With `CC[C@@H]1CS/C(=N\c2ccc(CCNc3nc4ccc(C)cc4s3)cc2)N1` [Example 96] the figure was below 1 µM; with `Cc1ccc2nc(NCCc3ccc(/N=C4/N[C@@H](Cc5c[nH]cn5)CS4)cc3)sc2c1` [Example 97], 1 to 10 µM; with `CC(C)C[C@@H]1CS/C(=N\c2ccc(CCNc3nc4ccc(Cl)cc4s3)cc2)N1` [Example 100], 1 to 10 µM.
`CCC1CS/C(=N\c2ccc(CCNc3nc4ccc(Cl)cc4s3)cc2)N1` (stereo not drawn) [Example 103]: the inhibition constant Ki lay within 1 to 10 µM.
As for `CCCC1CS/C(=N\c2ccc(CCNc3nc4ccc(Cl)cc4s3)cc2)N1` (stereo not drawn) [Example 105], the figure is below 1 µM; as for `CCCCC1CS/C(=N\c2ccc(CCNc3nc4ccc(Cl)cc4s3)cc2)N1` (stereo not drawn) [Example 106], 1 to 10 µM.
As for `CC(C)[C@H]1CS/C(=N\c2ccc(CCNc3nc4ccc(Cl)cc4s3)cc2)N1` [Example 107], the figure is 1 to 10 µM.
With `C[C@@H]1CS/C(=N\c2ccc(CCNc3nc4ccc(Cl)cc4s3)cc2)N1` [Example 109] the figure was 1 to 10 µM; with `CC[C@@H]1CS/C(=N\c2ccc(CCNc3nc4ccc(Cl)cc4s3)cc2)N1` [Example 110], below 1 µM; with `CCCCC1CS/C(=N\c2ccc(CCNc3nc4ccc(S(C)(=O)=O)cc4s3)cc2)N1` (stereo not drawn) [Example 111], 1 to 10 µM.
In turn, `C[C@@H]1CS/C(=N\c2ccc(CCNc3nc4ccc(S(C)(=O)=O)cc4s3)cc2)N1` [Example 114] yielded a Ki of 1 to 10 µM.
For `CC[C@@H]1CS/C(=N\c2ccc(CCNc3nc4ccc(S(C)(=O)=O)cc4s3)cc2)N1` [Example 115], the Ki lay within 1 to 10 µM.
`CS(=O)(=O)c1ccc2nc(NCCc3ccc(/N=C4/N[C@@H](Cc5c[nH]cn5)CS4)cc3)sc2c1` [Example 116]: the inhibitory constant (Ki) fell in the range of 1 to 10 µM.
Molecule `CS(=O)(=O)c1ccc2nc(NCCc3ccc(/N=C4/NC5(CCCC5)CS4)cc3)sc2c1` [Example 117] came in with an inhibition constant Ki of 1 to 10 µM.
Turning to `CC1(C)CS/C(=N\c2ccc(CCNc3nc4ccc(S(C)(=O)=O)cc4s3)cc2)N1` [Example 118], the Ki lay within 1 to 10 µM.
With `CC(C)C[C@@H]1CS/C(=N\c2ccc(CCNc3nc4ccccc4s3)cc2)N1` [Example 134], the Ki was below 1 µM.
As for `CC[C@@H]1CS/C(=N\c2ccc(CCNc3nc4ccc(F)cc4s3)cc2)N1` [Example 167], the figure is below 1 µM.
Molecule `Fc1ccc2nc(NCCc3ccc(/N=C4/NC5(CCCC5)CS4)cc3)sc2c1` [Example 169] came in with a Ki below 1 µM.
Molecule `CN1CCS/C1=N/c1cccc(CCNc2nc3ccccc3s2)c1` [Example 182] showed an inhibitory constant (Ki) above 10 µM.
With `c1ccc(/N=C2\N[C@H]3c4ccccc4CC3S2)c(CCNc2nc3ccccc3s2)c1` (stereo partly drawn) [Example 183] the figure was above 10 µM; with `c1cc(CCNc2nc3ccccc3s2)cc(/N=C2\N[C@H]3c4ccccc4CC3S2)c1` (stereo partly drawn) [Example 184], above 10 µM.
Take `C[C@@H]1N/C(=N\c2cccc(CCNc3nc4ccccc4s3)c2)SC1c1ccccc1` (stereo partly drawn) [Example 185]: the inhibitory constant (Ki) is below 1 µM.
As for `c1ccc(C2CN/C(=N\c3cccc(CCNc4nc5ccccc5s4)c3)S2)cc1` (stereo not drawn) [Example 186], the figure is above 10 µM.
As for `CC1CN/C(=N\c2cccc(CCNc3nc4ccccc4s3)c2)S1` (stereo not drawn) [Example 187], the figure is above 10 µM; as for `Cc1cccc2sc(NCCc3ccc(/N=C4/NCC(c5ccccc5)S4)cc3)nc12` (stereo not drawn) [Example 188], above 10 µM.
`CC1CN/C(=N/c2ccc(CCNc3nc4ccc(S(C)(=O)=O)cc4s3)cc2)S1` (stereo not drawn) [Example 189] returned a Ki above 10 µM.
`CC1CN/C(=N/c2ccc(CCNc3nc4cc(Cl)c(Cl)cc4s3)cc2)S1` (stereo not drawn) [Example 190] showed an inhibitory constant (Ki) above 10 µM.
For the molecule `C[C@@H]1N/C(=N/c2ccc(CCNc3nc4ccccc4s3)cc2)SC1c1ccccc1` (stereo partly drawn) [Example 191], the Ki is above 10 µM.
As for `c1ccc(C2CN/C(=N/c3ccc(CCNc4nc5ccccc5s4)cc3)S2)cc1` (stereo not drawn) [Example 192], the figure is above 10 µM.
With `CC1CN/C(=N/c2ccc(CCNc3nc4ccccc4s3)cc2)S1` (stereo not drawn) [Example 193] the figure was above 10 µM.
Turning to `O=[N+]([O-])c1ccc2nc(NCCc3ccc(/N=C4/N[C@H]5c6ccccc6CC5S4)cc3)sc2c1` (stereo partly drawn) [Example 194], the inhibition constant Ki was above 10 µM.
As for `c1ccc([C@@H]2CSC(Nc3ccc(CCNc4nc5ccccc5s4)cc3)=N2)cc1` [Example 196], the inhibition constant (Ki) is below 1 µM.
As for `c1ccc(CCC2CCSC(Nc3ccc(CCNc4nc5ccccc5s4)cc3)=N2)cc1` (stereo not drawn) [Example 197], the figure is below 1 µM; as for `Clc1cccc(C2CCSC(Nc3ccc(CCNc4nc5ccccc5s4)cc3)=N2)c1` (stereo not drawn) [Example 198], below 1 µM; as for `Clc1ccccc1C1CCSC(Nc2ccc(CCNc3nc4ccccc4s3)cc2)=N1` (stereo not drawn) [Example 199], below 1 µM.
With `CC1CCSC(Nc2ccc(CCNc3nc4ccccc4s3)cc2)=N1` (stereo not drawn) [Example 200] the figure was below 1 µM; with `c1ccc2sc(NCCc3ccc(NC4=NC(C5CCCCC5)CCS4)cc3)nc2c1` (stereo not drawn) [Example 201], below 1 µM; with `c1ccc2sc(NCCc3ccc(N=C4NCCCS4)cc3)nc2c1` [Example 202], below 1 µM.
As for `COc1ccc2nc(NCCc3ccc(/N=C4/NC(c5ccccc5)CCS4)cc3)sc2c1` (stereo not drawn) [Example 203], the figure is below 1 µM.
`Cc1ccc2nc(NCCc3ccc(/N=C4/NC(c5ccccc5)CCS4)cc3)sc2c1` (stereo not drawn) [Example 204] showed a Ki below 1 µM.
Turning to `Cc1ccc2nc(NCCc3ccc(N=C4NCCCS4)cc3)sc2c1` [Example 205], the inhibition constant Ki is below 1 µM.
With `COc1cccc2sc(NCCc3ccc(/N=C4/NC(c5ccccc5)CCS4)cc3)nc12` (stereo not drawn) [Example 206] the figure was above 10 µM.
With `COc1cccc2sc(NCCc3ccc(/N=C4/NCCCS4)cc3)nc12` [Example 207] the figure was above 10 µM.
As for `Cc1cccc2sc(NCCc3ccc(/N=C4/NC(c5ccccc5)CCS4)cc3)nc12` (stereo not drawn) [Example 208], the figure is above 10 µM; as for `Cc1cccc2sc(NCCc3ccc(/N=C4/NCCCS4)cc3)nc12` [Example 209], above 10 µM; as for `Fc1ccc2nc(NCCc3ccc(/N=C4/NC(c5ccccc5)CCS4)cc3)sc2c1` (stereo not drawn) [Example 210], below 1 µM.
With `Fc1ccc2nc(NCCc3ccc(/N=C4/NCCCS4)cc3)sc2c1` [Example 211], the inhibition constant Ki was below 1 µM.
`Clc1ccc2nc(NCCc3ccc(/N=C4/NC(c5ccccc5)CCS4)cc3)sc2c1` (stereo not drawn) [Example 212] gave an inhibition constant Ki below 1 µM.
In the case of `Clc1ccc2nc(NCCc3ccc(NC4=NCCCS4)cc3)sc2c1` [Example 213], the inhibition constant Ki is below 1 µM.
With `CCCC1CS/C(=N\c2ccc(CCNc3nc4ccc(OC)cc4s3)cc2)N1` (stereo not drawn) [Example 214] the figure was below 1 µM; with `CCCCC1CS/C(=N\c2ccc(CCNc3nc4ccc(OC)cc4s3)cc2)N1` (stereo not drawn) [Example 215], below 1 µM; with `COc1ccc2nc(NCCc3ccc(/N=C4/N[C@@H](C(C)C)CS4)cc3)sc2c1` [Example 216], 1 to 10 µM.
On to `COc1ccc2nc(NCCc3ccc(/N=C4/N[C@@H](c5ccccc5)CS4)cc3)sc2c1` [Example 217], for which the Ki is above 10 µM.
As for `COc1ccc2nc(NCCc3ccc(/N=C4/N[C@H](C)CS4)cc3)sc2c1` [Example 218], the figure is 1 to 10 µM; as for `CC[C@@H]1CS/C(=N\c2ccc(CCNc3nc4ccc(OC)cc4s3)cc2)N1` [Example 219], 1 to 10 µM.
Turning to `COc1ccc2nc(NCCc3ccc(/N=C4/NC5(CCCC5)CS4)cc3)sc2c1` [Example 220], the inhibition constant Ki lay in the range of 1 to 10 µM.
In the case of `COc1ccc2nc(NCCc3ccc(/N=C4/NC(C)(C)CS4)cc3)sc2c1` [Example 221], the Ki fell in the range of 1 to 10 µM.
As for `Cc1ccc2nc(NCCc3ccc(/N=C4\SC5Cc6ccccc6[C@@H]5N4C)cc3)sc2c1` (stereo partly drawn) [Example 222], the figure is above 10 µM; as for `Cc1ccc2nc(NCCc3ccc(/N=C4\SC5CCC[C@H]5N4C)cc3)sc2c1` (stereo partly drawn) [Example 223], above 10 µM.
`Cc1ccc2nc(NCCc3ccc(/N=C4\SC5Cc6ccccc6[C@@H]5N4C4CC4)cc3)sc2c1` (stereo partly drawn) [Example 224] returned an inhibition constant Ki above 10 µM.
